Experiments:
[1] = intranasal administration; cited from earlier work
[2] = Total and free testosterone in blood plasma 15 minutes after sublingual intake of the androgen(s); type: in vivo, human; details: measured not calculated, 5 mg T or 5 mg T + 5 mg DHT
Description: Testosterone (T) vs. testosterone and dihydrotestosterone (T+DHT) The first example concerns two male heterosexual patients. Two alternative forms of testosterone administration were considered for a treatment. The first treatment involved taking 5 mg sublingual testosterone (T) (solution consisting of alcohol, denaturalized water, testosterone and cyclodextrins). The second consisted of simultaneously taking 5 mg sublingual testosterone and 5 mg sublingual dihydrotestosterone (DHT) (solution consisting of alcohol, denaturalized water, DHT and cyclodextrins). The testosterone and DHT solutions were prepared by a pharmacist on the request of a general practitioner. Subsequently, the changes in total testosterone and free testosterone in blood plasma were examined, 15 minutes after intake of the androgen(s).
The table below describes the effects of the different treatments on ‘total testosterone’ and ‘free testosterone (i.e. measured, not calculated)’ for both patients:
This is consistent with the assumption that SHBG becomes more saturated as a result of the binding of DHT to SHBG. This means that the ingested testosterone can no longer bind to SHBG, and consequently there will be a greater increase in unbound testosterone (i.e. free testosterone). […] Total testosterone and free testosterone were measured 15 minutes after the administration of T and (T&DHT). dysfunction/disorder

[3] = sublingually with cyclodextrins (women about 0.1-2 mg; men about 0.5-20 mg); cited from earlier work

Row | Structure (SMILES) | Return of oxytocin levels to baseline [1] | T-max of oxytocin levels in the blood circulation [1] | Free T ([2]; Patient 1, blood plasma) [pml/L] | Free T ([2]; Patient 2, blood plasma) [pml/L] | Time to pharmacological peak in testosterone and free testosterone [3]
1 | CC[C@H](C)[C@@H]1NC(=O)[C@H](Cc2ccc(O)cc2)NC(=O)[C@@H](N)CSSC[C@@H](C(=O)N2CCC[C@H]2C(=O)N[C@@H](CC(C)C)C(=O)NCC(N)=O)NC(=O)[C@H](CC(N)=O)NC(=O)[C@H](CCC(N)=O)NC1=O [oxytocin] | approximately 90 minutes | approximately 15 minutes |  |  | 
2 | C[C@]12CC[C@H]3[C@@H](CCC4=CC(=O)CC[C@@]43C)[C@@H]1CC[C@@H]2O [T, 17-β-hydroxyandrost-4-en-3-one] |  |  | 440 | 1030 | about 15 minutes

From US20260248811A1, “COMPOSITIONS FOR TREATING AN INDIVIDUAL FOR IMPROVEMENT OF COGNITIVE FUNCTIONS” (priority 2023, published 2026)
